According to patent US20220274979A1 (Bayer Pharma Aktiengesellschaft, priority 2018, published 2022):
Read-outs that look alike come from different tables or passages of the source.

How the values were obtained:
[1] = target: T1, hK-RasG12C - hSOS1 interaction (Homo sapiens, UniProt Q07889); experiment: Biochemical Assay 1: hK-RasG12C interaction assay with hSOS1 (HTRF); format: binding
T1 construct: hSOS1 (amino acid 564-1049); made in house; host or cells: E. coli BL21 (DE3)
T1 sequence (Q07889 with tags, fused parts or gaps): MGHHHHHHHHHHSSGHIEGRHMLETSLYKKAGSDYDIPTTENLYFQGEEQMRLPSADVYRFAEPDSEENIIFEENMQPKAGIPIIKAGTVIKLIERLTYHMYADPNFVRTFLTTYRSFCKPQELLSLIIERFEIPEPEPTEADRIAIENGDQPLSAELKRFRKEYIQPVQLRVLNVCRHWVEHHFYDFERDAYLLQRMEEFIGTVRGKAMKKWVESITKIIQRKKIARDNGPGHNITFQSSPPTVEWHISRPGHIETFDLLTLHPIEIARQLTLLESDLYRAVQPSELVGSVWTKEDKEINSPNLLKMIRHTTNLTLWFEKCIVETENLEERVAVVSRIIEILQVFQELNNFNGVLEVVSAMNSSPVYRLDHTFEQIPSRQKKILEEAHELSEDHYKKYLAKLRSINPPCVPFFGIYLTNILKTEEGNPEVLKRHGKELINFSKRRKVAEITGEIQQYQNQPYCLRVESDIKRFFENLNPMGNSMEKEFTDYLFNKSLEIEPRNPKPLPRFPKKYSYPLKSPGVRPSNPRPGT
Method in brief: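 HTRF signal between GST-hK-RasG12C (10 nM working solution, anti-GST-Eu) and His-hSOS1 (20 nM working solution, anti-6His-XL665) was read in HEPES pH 7.4 buffer with 10 mM EDTA, 1 mM DTT and 100 mM KF at 20 °C.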

[2] = target: T2, hSOS1 (hSOS1-mediated nucleotide exchange of hK-RasG12C) (Homo sapiens, UniProt Q07889); experiment: Biochemical Assay 2: hK-RasG12C activation assay by hSOS1 at high GTP concentration (HTRF nucleotide exchange); conditions: high GTP (50 μM GTP)
T2 construct: hSOS1 (amino acid 564-1049); made in house; host or cells: E. coli BL21 (DE3)
T2 sequence (Q07889 with tags, fused parts or gaps): T1 sequence (Q07889 with tags, fused parts or gaps)

Row | SMILES | IC50 ([1]; values expressed as IC50) [µM] | IC50 [2] [µM] | inhibition at 20 µM ([1]; read-out: Assay 1 (hKRAS, hSOS Interaction) activity (expressed as IC50, or as % inhibition at 20 μM)) [%] | IC50 [1] [µM]
1 | CNCc1ccccc1-c1ccc(C(C)Nc2nc(C)nc3cnc(F)cc23)s1 (stereo not shown) [Example 36, 6-fluoro-2-methyl-N-[1-(5-{2-[(methylamino)methyl]phenyl}thiophen-2-yl)ethyl]pyrido[3,4-d]pyrimidin-4-amine] | 9.03 | 19 |  | 
2 | CCOc1cc2c(N[C@H](C)c3cccc(Br)c3)nc(C)nc2cn1 [Example 5, N-[(1R)-1-(3-bromophenyl)ethyl]-6-ethoxy-2-methylpyrido[3,4-d]pyrimidin-4-amine] | 0.491 | 0.994 |  | 
3 | Cc1nc(NC(C)c2ccc(-c3ccccc3CN(C)C)s2)c2cc(N3CC(NS(=O)(=O)c4ccccc4)C3)ncc2n1 (stereo not shown) [Example 94, N-[1-(4-{[1-(5-{2-[(dimethylamino)methyl]phenyl}thiophen-2-yl)ethyl]amino}-2-methylpyrido[3,4-d]pyrimidin-6-yl)azetidin-3-yl]benzenesulfonamide] | 0.0572 | 0.163 |  | 
4 | CC(=O)NCCNc1cc2c(N[C@H](C)c3cccc(Br)c3)nc(C)nc2cn1 [Example 44, N-{2-[(4-{[(1R)-1-(3-bromophenyl)ethyl]amino}-2-methylpyrido[3,4-d]pyrimidin-6-yl)amino]ethyl}acetamide] | 0.985 | 1.06 |  | 
5 | Cc1nc(NC(C)c2ccc(-c3ccccc3CN(C)C)s2)c2cc(OCCO)ncc2n1 (stereo not shown) [Example 74, 2-[(4-{[1-(5-{2-[(dimethylamino)methyl]phenyl}thiophen-2-yl)ethyl]amino}-2-methylpyrido[3,4-d]pyrimidin-6-yl)oxy]ethanol] | 0.0552 | 0.0928 |  | 
6 | Cc1nc(NC(C)c2ccc(-c3ccccc3CN(C)C)s2)c2cc(N3CC(NC(=O)c4ccccc4)C3)ncc2n1 (stereo not shown) [Example 88, N-[1-(4-{[1-(5-{2-[(dimethylamino)methyl]phenyl}thiophen-2-yl)ethyl]amino}-2-methylpyrido[3,4-d]pyrimidin-6-yl)azetidin-3-yl]benzamide] | 0.0595 | 0.161 |  | 
7 | COc1cc2c(N[C@H](C)c3ccc(F)c(C4CC4)c3)nc(C)nc2cn1 [Example 12] | 5.84 | 6.45 |  | 
8 | Cc1nc(NC(C)c2ccc(-c3ccccc3CN(C)C)s2)c2cc(OCCCN(C)C)ncc2n1 (stereo not shown) [Example 72, N-[1-(5-{2-[(dimethylamino)methyl]phenyl}thiophen-2-yl)ethyl]-6-[3-(dimethylamino)propoxy]-2-methylpyrido[3,4-d]pyrimidin-4-amine] | 0.0342 | 0.0421 |  | 
9 | COc1cc2c(NC(C)c3cccc4nn(C)cc34)nc(C)nc2cn1 (stereo not shown) [Example 17, 6-methoxy-2-methyl-N-[1-(2-methyl-2H-indazol-4-yl)ethyl]pyrido[3,4-d]pyrimidin-4-amine] | 9.19 | 7.73 |  | 
10 | COc1cc2c(NC(C)c3ccc(-c4ccccc4CN(C)C)s3)nc(C)nc2cn1 (stereo not shown) [Example 64, N-[1-(5-{2-[(dimethylamino)methyl]phenyl}thiophen-2-yl)ethyl]-6-methoxy-2-methylpyrido[3,4-d]pyrimidin-4-amine] | 0.0595 | 0.0626 |  | 
11 | Cc1nc(N[C@H](C)c2cccc(Br)c2)c2cc(N3CCNC(=O)C3)ncc2n1 [Example 45] | 0.0918 | 0.506 |  | 
12 | COc1cc2c(N[C@H](C)c3ccc(F)c(Cl)c3)nc(C)nc2cn1 [Example 8] | 5.49 | 4.89 |  | 
13 | Cc1nc(NC(C)c2ccc(-c3ccccc3CN(C)C)s2)c2cc(OCC3CC3)ncc2n1 (stereo not shown) [Example 73, 6-(cyclopropylmethoxy)-N-[1-(5-{2-[(dimethylamino)methyl]phenyl}thiophen-2-yl)ethyl]-2-methylpyrido[3,4-d]pyrimidin-4-amine] | 0.095 | 0.129 |  | 
14 | Cc1nc(NC(C)c2ccc(-c3ccccc3CN(C)C)s2)c2cc(OC3CCS(=N)(=O)CC3)ncc2n1 (stereo not shown) [Example 77, N-[1-(5-{2-[(dimethylamino)methyl]phenyl}-2-thienyl)ethyl]-6-[(1-imino-1-oxidohexahydro-1lambda4-thiopyran-4-yl)oxy]-2-methylpyrido[3,4-d]pyrimidin-4-amine] | 0.0498 | 0.0588 |  | 
15 | Cc1nc(NC(C)c2ccc(-c3ccccc3CN(C)C)s2)c2cc(N3CCC3)ncc2n1 (stereo not shown) [Example 71, 6-(azetidin-1-yl)-N-[1-(5-{2-[(dimethylamino)methyl]phenyl}thiophen-2-yl)ethyl]-2-methylpyrido[3,4-d]pyrimidin-4-amine] | 0.0511 | 0.0555 |  | 
16 | Cc1nc(NC(C)c2ccc(-c3ccccc3CN(C)C)s2)c2cc(Oc3cccc(C4=NCCN4C)c3)ncc2n1 (stereo not shown) [Example 58, N-[1-(5-{2-[(dimethylamino)methyl]phenyl}thiophen-2-yl)ethyl]-2-methyl-6-[3-(1-methyl-4,5-dihydro-1H-imidazol-2-yl)phenoxy]pyrido[3,4-d]pyrimidin-4-amine] | 0.117 | 0.141 |  | 
17 | Cc1nc(NC(C)c2ccc(-c3ccccc3CN(C)C)s2)c2cc(C3CCN(C)C3=O)ncc2n1 (mixture of isomers) [Example 69, 3-(4-{[1-(5-{2-[(dimethylamino)methyl]phenyl}thiophen-2-yl)ethyl]amino}-2-methylpyrido[3,4-d]pyrimidin-6-yl)-1-methylpyrrolidin-2-one] | 0.0626 | 0.0983 |  | 
18 | Cc1nc(N[C@H](C)c2cccc(Br)c2)c2cc(OCCCN(C)C)ncc2n1 [Example 70, N-[(1R)-1-(3-bromophenyl)ethyl]-6-[3-(dimethylamino)propoxy]-2-methylpyrido[3,4-d]pyrimidin-4-amine] | 0.409 | 0.951 |  | 
19 | Cc1nc(N[C@H](C)c2cccc(Br)c2)c2nc(OCc3ccccc3)ccc2n1 [Example 33, 6-(benzyloxy)-N-[(1R)-1-(3-bromophenyl)ethyl]-2-methylpyrido[3,2-d]pyrimidin-4-amine] |  | > 20 | 29.3 | 
20 | Cc1nc(N[C@H](C)c2cccc(Br)c2)c2cc(NC3CCOCC3)ncc2n1 [Example 46] | 1.29 | 4.22 |  | 
21 | COc1ncc2nc(C)nc(N[C@H](C)c3cccc(Br)c3)c2n1 [Example 24, N-[(1R)-1-(3-bromophenyl)ethyl]-6-methoxy-2-methylpyrimido[5,4-d]pyrimidin-4-amine] | 9.41 | 9.71 |  | 
22 | Cc1nc(NC(C)c2ccc(-c3ccccc3CN(C)C)s2)c2cc(N3CC(N)C3)ncc2n1 (stereo not shown) [Example 93, 6-(3-aminoazetidin-1-yl)-N-[1-(5-{2-[(dimethylamino)methyl]phenyl}thiophen-2-yl)ethyl]-2-methylpyrido[3,4-d]pyrimidin-4-amine] | 0.0335 | 0.0692 |  | 
23 | CC(=O)NCCNc1cc2c(NC(C)c3ccc(-c4ccccc4CN(C)C)s3)nc(C)nc2cn1 (stereo not shown) [Example 51, N-{2-[(4-{[1-(5-{2-[(dimethylamino)methyl]phenyl}thiophen-2-yl)ethyl]amino}-2-methylpyrido[3,4-d]pyrimidin-6-yl)amino]ethyl}acetamide] | 0.0329 | 0.0778 |  | 
24 | Cc1nc(NC(C)c2ccc(-c3ccccc3CN(C)C)s2)c2cc(C3(O)CCN(C)C3=O)ncc2n1 (mixture of isomers) [Example 85, 3-(4-{[1-(5-{2-[(dimethylamino)methyl]phenyl}thiophen-2-yl)ethyl]amino}-2-methylpyrido[3,4-d]pyrimidin-6-yl)-3-hydroxy-1-methylpyrrolidin-2-one] |  | 0.214 |  | 0.0834
25 | Cc1nc(NC(C)c2ccc(-c3ccccc3CN(C)C)s2)c2cc(NC3CCOCC3)ncc2n1 (stereo not shown) [Example 53, N4-[1-(5-{2-[(dimethylamino)methyl]phenyl}-2-thienyl)ethyl]-2-methyl-N6-(tetrahydro-2H-pyran-4-yl)pyrido[3,4-d]pyrimidine-4,6-diamine] | 0.0547 | 0.223 |  | 
26 | Cc1nc(NC(C)c2ccc(-c3ccccc3CN(C)C)s2)c2cc(NCCn3cccn3)ncc2n1 (stereo not shown) [Example 54, N4-[1-(5-{2-[(dimethylamino)methyl]phenyl}-2-thienyl)ethyl]-2-methyl-N6-[2-(1H-pyrazol-1-yl)ethyl]pyrido[3,4-d]pyrimidine-4,6-diamine] | 0.0496 | 0.161 |  | 
27 | Cc1nc(N[C@H](C)c2cccc(Br)c2)c2nc(N3CCOCC3)ccc2n1 [Example 27, N-[(1R)-1-(3-bromophenyl)ethyl]-2-methyl-6-(morpholin-4-yl)pyrido[3,2-d]pyrimidin-4-amine] | 2.58 | 1.84 |  | 
28 | Cc1nc(N[C@H](C)c2cccc(Br)c2)c2cc(OCC3CC3)ncc2n1 [Example 75, N-[(1R)-1-(3-bromophenyl)ethyl]-6-(cyclopropylmethoxy)-2-methylpyrido[3,4-d]pyrimidin-4-amine] | 4.18 | 3.19 |  | 
29 | Cc1nc(N[C@H](C)c2cccc(Br)c2)c2cc(NCCn3ccnc3)ncc2n1 [Example 84, N4-[(1R)-1-(3-bromophenyl)ethyl]-N6-[2-(1H-imidazol-1-yl)ethyl]-2-methylpyrido[3,4-d]pyrimidine-4,6-diamine] | 0.513 | 1.03 |  | 
